Experimental data: US20180256673A1, “METHODS FOR TREATING FUNGAL INFECTIONS” (priority 2015, published 2018)
Where “and” joins values, the source holds several entries; their conditions need not be identical. Identical values can stand only once. Like-named read-outs stand apart in the source and are kept apart here. Starred links: 1 amine or outer side, 2 acyl side, 3 side chain; linkers in the order of their positions; H or OH if unused. Positions of bridges follow the written chain, without caps; N, C: chain ends. Non-standard residues stand in square brackets, D forms with d. Residues, ends and D or L forms follow the SMILES beside them. *: point of attachment. Orn(4R-OH,5R-OCH2CH2NMe3+) = C[N+](C)(C)CCO[C@@H](N[*:3])[C@H](O)C[C@H](N[*:1])C(=O)[*:2]; pTerphenylCO(4''-OnC5H11) = CCCCCOc1ccc(-c2ccc(-c3ccc(C(=O)*)cc3)cc2)cc1; hTyr(3S-OH,4S-OH) = N[C@H](C(=O)O)[C@H](O)[C@@H](O)c1ccc(O)cc1; Pro(3S-OH,4S-Me) = C[C@H]1CN[C@H](C(=O)O)[C@H]1O; Hyp = O=C(O)[C@@H]1C[C@@H](O)CN1

What was measured:
C. krusei ATCC 6258 [1] = experiment: microbe, parasite or virus in culture; format: cell-based, Candida krusei; details: Pichia kudriavzevii
C. krusei ATCC 6258 [2] = format: cell-based, Candida krusei
Experimental: (§1) Spontaneous mutant selection. […] Three individual colonies from each strain were used to start cultures in RPMI. […] One milliliter aliquots were spread onto SDA plates containing drug with sterile glass beads. Starting viable count was enumerated by triplicate plating of serial dilutions of the starting inoculum. […] Glycerol stocks of putative mutant colonies were stored at −80° C. […] Spontaneous mutation frequencies were calculated by dividing the number of resistant colonies on a given plate by the starting inoculum plated. A subset of mutants (weighted heavily towards those selected with CMP1) were then evaluated by MIC and sequencing of FKS gene hot spot regions.

C. albicans NRRL Y-477 [3] = experiment: Broth microdilution MIC (CLSI), Examples 3 and 4; details: Candida albicans
Experimental: Antifungal susceptibility testing. […] MIC assays were performed in triplicate.

[4] = test system: C. tropicalis vaginal isolates; experiment: Susceptibility testing of VVC clinical isolates at pH 7 and 4 (CLSI M27-A3); format: cell-based; details: Candida tropicalis
Candida dubliniensis = experiment: Broth microdilution of invasive fungal isolates (CLSI M27-A3/M38-A2); format: cell-based; details: 11 isolates
C. albicans NRRL Y-477 [5] = experiment: microbe, parasite or virus in culture; format: cell-based, Candida albicans; details: Candida albicans
[6] = test system: C. glabrata ATCC 90030, ATCC 2001; experiment: microbe, parasite or virus in culture; format: cell-based, Candida glabrata; details: Nakaseomyces glabratus
C. parapsilosis CP02 [7] = format: cell-based, Candida parapsilosis
Experimental: as §1

Candida parapsilosis = experiment: Broth microdilution of invasive fungal isolates (CLSI M27-A3/M38-A2); format: cell-based; details: 92 isolates
C. albicans NRRL Y-477 [8] = format: cell-based, Candida albicans
Experimental: as §1

C. parapsilosis CP02 [9] = experiment: microbe, parasite or virus in culture; format: cell-based, Candida parapsilosis; details: Lodderomyces parapsilosis
[10] = test system: C. albicans vaginal isolates; experiment: Susceptibility testing of VVC clinical isolates at pH 7 and 4 (CLSI M27-A3); format: cell-based, Candida albicans; details: 60 VVC isolates
[11] = SDA, minimum concentration to cleanly inhibit growth
[12] = replicate plates 1-3, listed as CMP1

Structure (SMILES): CCCCCOc1ccc(-c2ccc(-c3ccc(C(=O)N[C@H]4C[C@@H](O)[C@@H](OCC[N+](C)(C)C)NC(=O)[C@@H]5[C@@H](O)[C@@H](C)CN5C(=O)[C@H]([C@@H](C)O)NC(=O)[C@H]([C@H](O)[C@@H](O)c5ccc(O)cc5)NC(=O)[C@@H]5C[C@@H](O)CN5C(=O)[C@H]([C@@H](C)O)NC4=O)cc3)cc2)cc1 [Compound 1] ({pTerphenylCO(4''-OnC5H11)}-[Orn(4R-OH,5R-OCH2CH2NMe3+)]T[Hyp][hTyr(3S-OH,4S-OH)]T[Pro(3S-OH,4S-Me)]; lactam 1-C)
- MIC (C. krusei ATCC 6258 [1]; ATCC6258): 0.125 µg/mL
- MIC (C. krusei ATCC 6258 [1]; ATCC6258, read-out: MIC P20): 0.125 µg/mL
- Median mutation frequency (C. krusei ATCC 6258 [2]): 3.86E−09
- Plate concentration (C. krusei ATCC 6258 [2]; [11]): 0.25 µg/mL
- Freq. (replicate mutation frequency) (C. krusei ATCC 6258 [2]; [12]): 1.54E−08 and 3.51E−09 and 3.86E−09
- MIC (C. albicans NRRL Y-477 [3]; NRRLY477): 0.25 µg/mL
- MIC (C. albicans NRRL Y-477 [3]; NRRLY477, 24 h, read-out: Broth MIC): 0.03 µg/mL
- MIC90 ([4]; 24 h, pH 4): 0.5 µg/mL
- MIC90 ([4]; 24 h, pH 7): 0.125 µg/mL
- MIC90 ([4]; 48 h, pH 4): 2 µg/mL
- MIC90 ([4]; 48 h, pH 7): 0.125 µg/mL
- Cumulative % of isolates inhibited at MIC 0.03 μg/mL (Candida dubliniensis): (54.5) %
- Cumulative % of isolates inhibited at MIC 0.06 μg/mL (Candida dubliniensis): (90.9) %
- Cumulative % of isolates inhibited at MIC 0.12 μg/mL (Candida dubliniensis): (100.0) %
- Number of isolates inhibited at MIC 0.03 μg/mL (Candida dubliniensis): 6
- Number of isolates inhibited at MIC 0.06 μg/mL (Candida dubliniensis): 4
- Number of isolates inhibited at MIC 0.12 μg/mL (Candida dubliniensis): 1
- MIC50 (Candida dubliniensis; Candida dubliniensis, read-out: MIC50): 0.03 µg/mL
- MIC90 (Candida dubliniensis; Candida dubliniensis, read-out: MIC90): 0.06 µg/mL
- MIC (C. albicans NRRL Y-477 [5]; NRRLY477, 48 h, NRRL Y-477 P20-1, selecting drug ANID, Fks1 HS1 S645Y, 48 h read): 2 µg/mL
- MIC (C. albicans NRRL Y-477 [5]; NRRLY477, 48 h, NRRL Y-477 P20-1, selecting drug CMP1, 48 h read): 0.25 µg/mL
- MIC (C. albicans NRRL Y-477 [5]; NRRLY477, NRRL Y-477 P20-1, selecting drug CAS): 0.03 µg/mL
- MIC (C. albicans NRRL Y-477 [5]; NRRLY477, read-out: MIC P20, NRRL Y-477, total population after 20 passages with the selecting drug, MIC of selecting drug): 0.25 µg/mL
- MIC ([6]; 48 h, ATCC 90030 P20-1, selecting drug ANID, Fks2 HS1 D666I, 48 h read): 2 µg/mL
- MIC ([6]; ATCC 2001 P20-2, selecting drug CAS): 2 µg/mL
- MIC ([6]; ATCC 2001 P20-2, selecting drug CMP1): 1 µg/mL
- MIC ([6]; ATCC 90030 P20-2, selecting drug CMP1): 1 µg/mL
- MIC ([6]; read-out: MIC P20, ATCC 2001, total population after 20 passages with the selecting drug, MIC of selecting drug): 1 µg/mL
- MIC ([6]; read-out: MIC P20, ATCC 90030, total population after 20 passages with the selecting drug, MIC of selecting drug): 1 µg/mL
- Median mutation frequency (C. parapsilosis CP02 [7]): 2.08E−08
- Plate concentration (C. parapsilosis CP02 [7]; [11]): 8 µg/mL
- Freq. (replicate mutation frequency) (C. parapsilosis CP02 [7]; [12]): 2.08E−08 (2×) and 9.62E−09
- Cumulative % of isolates inhibited at MIC 0.5 μg/mL (Candida parapsilosis): (23.9) %
- Cumulative % of isolates inhibited at MIC 1 μg/mL (Candida parapsilosis): (62.0) %
- Cumulative % of isolates inhibited at MIC 2 μg/mL (Candida parapsilosis): (98.9) %
- Cumulative % of isolates inhibited at MIC 4 μg/mL (Candida parapsilosis): (100.0) %
- Number of isolates inhibited at MIC 0.5 μg/mL (Candida parapsilosis): 22
- Number of isolates inhibited at MIC 1 μg/mL (Candida parapsilosis): 35
- Number of isolates inhibited at MIC 2 μg/mL (Candida parapsilosis): 34
- Number of isolates inhibited at MIC 4 μg/mL (Candida parapsilosis): 1
- MIC50 (Candida parapsilosis; Lodderomyces parapsilosis, read-out: MIC50): 1 µg/mL
- MIC90 (Candida parapsilosis; Lodderomyces parapsilosis, read-out: MIC90): 2 µg/mL
- Median mutation frequency (C. albicans NRRL Y-477 [8]): 5.00E−08
- Plate concentration (C. albicans NRRL Y-477 [8]; [11]): 0.06 µg/mL
- Freq. (replicate mutation frequency) (C. albicans NRRL Y-477 [8]; [12]): 5.00E−08 and 2.27E−08 and 5.47E−08
- MIC (C. parapsilosis CP02 [9]; CP02, CP02 P20-1, selecting drug ANID): 4 µg/mL
- MIC (C. parapsilosis CP02 [9]; CP02, CP02 P20-1, selecting drug CMP1): 4 µg/mL
- MIC (C. parapsilosis CP02 [9]; CP02, read-out: MIC P20, CP02, total population after 20 passages with the selecting drug, MIC of selecting drug): 4 µg/mL
- Number of isolates at MIC 0.06 μg/mL ([10]; 24 h, pH 4): 1
- Number of isolates at MIC 0.125 μg/mL ([10]; 24 h, pH 4): 33
- Number of isolates at MIC 0.25 μg/mL ([10]; 24 h, pH 4): 23
- Number of isolates at MIC 0.5 μg/mL ([10]; 24 h, pH 4): 3
- Number of isolates at MIC 0.03 μg/mL ([10]; 24 h, pH 7): 43
- Number of isolates at MIC 0.06 μg/mL ([10]; 24 h, pH 7): 10
- Number of isolates at MIC 0.125 μg/mL ([10]; 24 h, pH 7): 2
- Number of isolates at MIC […] ([10]; 24 h, pH 7): 5
- Number of isolates at MIC 0.125 μg/mL ([10]; 48 h, pH 4): 6
- Number of isolates at MIC 0.25 μg/mL ([10]; 48 h, pH 4): 16
- Number of isolates at MIC 0.5 μg/mL ([10]; 48 h, pH 4): 34
- Number of isolates at MIC 1 μg/mL ([10]; 48 h, pH 4): 4
